Measured values published in patent US12139475B2, “2-oxindole compounds” (CHEMOCENTRYX, INC., priority 2016, dated 2024).

Biological target: T1, CCR(9) (Homo sapiens, UniProt P51686)
T1 construct: MOLT-4 cells were collected by centrifugation at 400×g at room temperature, then suspended at 50 million/ml in human serum; host or cells: MOLT-4
T1 sequence (P51686 1-369): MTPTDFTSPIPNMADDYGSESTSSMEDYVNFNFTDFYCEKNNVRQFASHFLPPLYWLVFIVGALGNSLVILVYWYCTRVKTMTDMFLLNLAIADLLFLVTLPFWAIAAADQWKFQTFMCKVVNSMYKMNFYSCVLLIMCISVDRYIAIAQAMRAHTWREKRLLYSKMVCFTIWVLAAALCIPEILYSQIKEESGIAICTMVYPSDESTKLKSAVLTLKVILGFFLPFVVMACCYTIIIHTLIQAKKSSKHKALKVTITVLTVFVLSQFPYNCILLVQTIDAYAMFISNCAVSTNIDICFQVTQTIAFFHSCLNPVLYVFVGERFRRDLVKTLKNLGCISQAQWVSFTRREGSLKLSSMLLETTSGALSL
Assay: Serum chemotaxis assay (MOLT-4 cells, TECK-induced migration, ChemoTX)
Assay type: cell-based
Conditions: MOLT-4 cells in human serum, migration to recombinant human TECK, 90 minutes at 37° C.
Protocol: MOLT-4 cells were obtained from the American Type Culture Collection (Manassas, VA) and cultured in RPMI tissue culture medium supplemented with 10% fetal calf serum (FCS) in a humidified 5% CO2 incubator at 37° C. Recombinant human chemokine proteins TECK was obtained from R&D Systems (Minneapolis, MN). ChemoTX™ chemotaxis microchambers were purchased from Neuro Probe (Gaithersburg, MD). CyQUANT™ cell proliferation kits were purchased from Molecular Probes (Eugene, Oregon). Calcium indicator dye Fluo-4 AM was purchased from Molecular Devices (Mountain View, CA).
A serum chemotaxis assay was used to determine the efficacy of potential receptor antagonists at blocking the migration mediated through chemokine receptors, such as CCR(9). This assay was performed using the ChemoTX® microchamber system with a 5-μm pore-sized polycarbonate membrane. MOLT-4 cells were collected by centrifugation at 400×g at room temperature, then suspended at 50 million/ml in human serum, containing 50 mM HEPES (final pH of 7.2). The compound being tested or an equivalent volume of its solvent (DMSO) was then added to the cell/serum mixture at a final DMSO concentration of 0.125% (v/v), and this mixture was then incubated together at 37° C. for one hour. Separately, recombinant human TECK was diluted with chemotaxis buffer (HBSS+0.1% BSA), generally spanning a range from 0.1 nM to 500 nM, after which 29 μl of diluted chemokine was placed in the lower wells of the ChemoTX® plate. The 5-μm (pore size) polycarbonate membrane was placed onto the plate, and 20 μL of the cell/compound mixture was transferred onto each well of the membrane. The plates were incubated at 37° C. for 90 minutes, after which the polycarbonate membranes were removed and 5 μl of the DNA-intercalating agent CyQUANT (Invitrogen, Carlsbad, CA) was added to the lower wells. The amount of fluorescence, corresponding to the number of migrated cells, was measured using a Spectrafluor Plus plate reader (TECAN, San Jose, CA).
The A2 values were calculated from the following equation, comparing the efficacy of the test compound with that of the DMSO-only control at equi-active chemokine levels: Log(A2)=log[drug(M)]−log[(A′/A)−1] where A reflects the potency of the agonist in the absence of antagonist and A′ reflects the potency of the agonist in the presence of antagonist at a given concentration of drug ([drug(M)]). In Vivo Efficacy Models for Human IBD

SMILES | Chemotaxis A2
CC(C)(C)c1ccc(C2(C)C(=O)N(c3ccc(C(=O)O)cc3)c3ccc(Cl)cc32)cc1 (stereo not shown) | +++ (100 nM > A2)
Cc1cc(C(C)(C)C)ccc1C1(C)C(=O)N(c2cccc(C(=O)O)c2)c2ccc(Cl)cc21 (stereo not shown) | +++ (100 nM > A2)
Cc1ccc2c(c1)C(C)(c1ccc(C(C)(C)C)c(F)c1)C(=O)N2c1cccc(C(=O)O)c1 (stereo not shown) | +++ (100 nM > A2)
CC(C)Oc1ccc(C2(C)C(=O)N(c3ccc(C(=O)O)cc3)c3ccc(Cl)cc32)cc1 (stereo not shown) | +++ (100 nM > A2)
CC(C)(C)c1ccc(C2(C)C(=O)N(c3cc(F)cc(C(=O)O)c3)c3ccc(Cl)cc32)cc1 (stereo not shown) | +++ (100 nM > A2)
Cc1ccc2c(c1)N(c1cccc(C(=O)O)c1)C(=O)C2(C)c1ccc(C(C)(C)C)c(F)c1 (stereo not shown) | ++ (500 nM > A2 ≥ 100 nM)
CC(C)(C)c1ccc(C2(C)C(=O)N(c3ccnc(C(=O)O)c3)c3ccc(Cl)cc32)cc1 (stereo not shown) | ++ (500 nM > A2 ≥ 100 nM)
CC(C)(C)c1ccc(C2(C)C(=O)N(c3cccc(C(=O)O)n3)c3ccc(Cl)cc32)cc1 (stereo not shown) | ++ (500 nM > A2 ≥ 100 nM)
COc1ccc(C2(C)C(=O)N(c3cccc(C(=O)O)c3)c3ccc(Cl)cc32)cc1F (stereo not shown) | + (20000 nM ≥ A2 ≥ 500 nM)
CC(C)(O)c1ccc(C2(C)C(=O)N(c3cccc(C(=O)O)c3)c3ccc(Cl)cc32)cc1 (stereo not shown) | ++ (500 nM > A2 ≥ 100 nM)
CC(C)(C)c1ccc(C2(C)C(=O)N(c3ccc(C(=O)O)cc3F)c3ccc(Cl)cc32)cc1 (stereo not shown) | ++ (500 nM > A2 ≥ 100 nM)
CC(C)(C)c1ccc(C2(C)C(=O)N(c3cccc(C(=O)O)c3F)c3ccc(Cl)cc32)cc1 (stereo not shown) | +++ (100 nM > A2)
CC(C)(F)c1ccc(C2(C)C(=O)N(c3cccc(C(=O)O)c3)c3ccc(Cl)cc32)cc1 (stereo not shown) | ++ (500 nM > A2 ≥ 100 nM)
CC1(c2ccc(C(C)(O)C(F)(F)F)cc2)C(=O)N(c2cccc(C(=O)O)c2)c2ccc(Cl)cc21 (stereo not shown) | ++ (500 nM > A2 ≥ 100 nM)
CC(C)(C)c1ccc(C2(C)C(=O)N(c3cccc(C(=O)O)c3)c3ccc(OC(F)(F)F)cc32)cc1 (stereo not shown) | +++ (100 nM > A2)
CC1(c2ccc(C3(C#N)CC3)cc2)C(=O)N(c2cccc(C(=O)O)c2)c2ccc(Cl)cc21 (stereo not shown) | ++ (500 nM > A2 ≥ 100 nM)
CC1(c2ccc(C3(C)C(=O)N(c4cccc(C(=O)O)c4)c4ccc(Cl)cc43)cc2)CC1 (stereo not shown) | +++ (100 nM > A2)
CC1(C)CCc2cc(C3(C)C(=O)N(c4cccc(C(=O)O)c4)c4ccc(OC(F)(F)F)cc43)ccc2O1 (stereo not shown) | +++ (100 nM > A2)
CC1(C)CCc2cc(C3(C)C(=O)N(c4cccc(C(=O)O)c4)c4ccc(C5CC5)cc43)ccc2O1 (stereo not shown) | +++ (100 nM > A2)
CCc1ccc2c(c1)C(C)(c1ccc3c(c1)CCC(C)(C)O3)C(=O)N2c1cccc(C(=O)O)c1 (stereo not shown) | +++ (100 nM > A2)
CC1(C)Cc2cc(C3(C)C(=O)N(c4cccc(C(=O)O)c4)c4ccc(Cl)cc43)ccc2O1 (stereo not shown) | +++ (100 nM > A2)
Cc1cc(C2(C)C(=O)N(c3cccc(C(=O)O)c3)c3ccc(Cl)cc32)ccc1C(C)(C)C (stereo not shown) | ++ (500 nM > A2 ≥ 100 nM)
CC1(C)CCc2cc(C3(C)C(=O)N(c4cccc(C(=O)O)c4)c4cc(Cl)c(Cl)cc43)ccc2O1 (stereo not shown) | +++ (100 nM > A2)
COc1ccc(C(=O)O)c(CN2C(=O)[C@@](C)(c3ccc4c(c3)CCC(C)(C)O4)c3cc(Cl)ccc32)c1 | +++ (100 nM > A2)
CC1(C)CCc2cc([C@]3(C)C(=O)N(c4cc(C#N)cc(C(=O)O)c4)c4ccc(Cl)cc43)ccc2O1 | ++ (500 nM > A2 ≥ 100 nM)
COc1c(C)cc(N2C(=O)[C@@](C)(c3ccc4c(c3)CCC(C)(C)O4)c3cc(Cl)ccc32)cc1C(=O)O | +++ (100 nM > A2)
Cc1ccc2c(c1)C(C)(c1ccc3c(c1)CCC(C)(C)O3)C(=O)N2c1ccc(C)c(C(=O)O)c1 (stereo in doubt) [5-[(3R)-3-(2,2-dimethylchroman-6-yl)-3,5-dimethyl-2-oxo-indolin-1-yl]-2-methyl-benzoic acid] | +++ (100 nM > A2)

Continued, values first:

Chemotaxis A2 | SMILES
++ (500 nM > A2 ≥ 100 nM) | Cc1ccc2c(c1)N(c1ccc(C(=O)O)cc1)C(=O)C2(C)c1ccc(C(C)(C)C)cc1 (stereo not shown)
++ (500 nM > A2 ≥ 100 nM) | CC(C)(C)c1ccc(C2(C)C(=O)N(c3cccc(C(=O)O)c3)c3cc(Cl)ccc32)cc1 (stereo not shown)
+++ (100 nM > A2) | CC(C)Oc1ccc(C2(C)C(=O)N(c3cccc(C(=O)O)c3)c3ccc(Cl)cc32)cc1 (stereo not shown)
+ (20000 nM ≥ A2 ≥ 500 nM) | CC(C)(C)c1ccc(C2(C)C(=O)N(c3cccc(C(=O)O)c3)c3c(Cl)cc(Cl)cc32)cc1 (stereo not shown)
++ (500 nM > A2 ≥ 100 nM) | CC(C)(C)c1ccc(C2(C)C(=O)N(c3ccccc3C(=O)O)c3ccc(Cl)cc32)cc1 (stereo not shown)
+ (20000 nM ≥ A2 ≥ 500 nM) | CC(C)(C)c1ccc(C2(C)C(=O)N(c3cccc(C(=O)O)c3)c3cc(Cl)ccc32)cc1F (stereo not shown)
++ (500 nM > A2 ≥ 100 nM) | CC(C)(C)c1ccc(C2(C)C(=O)N(c3ccc(C(=O)O)c(F)c3)c3ccc(Cl)cc32)cc1 (stereo not shown)
++ (500 nM > A2 ≥ 100 nM) | Cc1ccc2c(c1)N(c1cccc(C(=O)O)c1)C(=O)C2(C)c1ccc(C(C)(C)C)cc1 (stereo not shown)
++ (500 nM > A2 ≥ 100 nM) | CC(C)(C)c1ccc(C2(C)C(=O)N(c3cc(C(=O)O)ccc3F)c3ccc(Cl)cc32)cc1 (stereo not shown)
++ (500 nM > A2 ≥ 100 nM) | CC(C)(C)c1ccc(C2(C)C(=O)N(c3cncc(C(=O)O)c3)c3ccc(Cl)cc32)cc1 (stereo not shown)
+++ (100 nM > A2) | CC(C)(C)c1ccc(C2(C)C(=O)N(c3cc(C(=O)O)ccn3)c3ccc(Cl)cc32)cc1 (stereo not shown)
+ (20000 nM ≥ A2 ≥ 500 nM) | CC1(c2ccc(Cl)cc2)C(=O)N(c2cccc(C(=O)O)c2)c2ccc(Cl)cc21 (stereo not shown)
+++ (100 nM > A2) | CC1(c2ccc(C3(C(F)(F)F)CC3)cc2)C(=O)N(c2cccc(C(=O)O)c2)c2ccc(Cl)cc21 (stereo not shown)
++ (500 nM > A2 ≥ 100 nM) | Cc1cc(C2(C)C(=O)N(c3cccc(C(=O)O)c3)c3ccc(Cl)cc32)ccc1OC(C)C (stereo not shown)
+ (20000 nM ≥ A2 ≥ 500 nM) | CC1(c2ccc(C(C)(C)C(C)(F)F)cc2)C(=O)N(c2cccc(C(=O)O)c2)c2ccc(Cl)cc21 (stereo not shown)
+++ (100 nM > A2) | CC1(C)CCc2cc(C3(C)C(=O)N(c4cccc(C(=O)O)c4)c4ccc(C#N)cc43)ccc2O1 (stereo not shown)
+++ (100 nM > A2) | CC1(C)CCc2cc(C3(C)C(=O)N(c4cccc(C(=O)O)c4)c4cc(Cl)c(OC(F)(F)F)cc43)ccc2O1 (stereo not shown)
+++ (100 nM > A2) | CC1(C)CCc2cc(C3(C)C(=O)N(c4ccc(CC(=O)O)cc4)c4ccc(Cl)cc43)ccc2O1 (stereo in doubt) [2-[4-[(3R)-5-chloro-3-(2,2-dimethylchroman-6-yl)-3-methyl-2-oxo-indolin-1-yl]phenyl]acetic acid]
+++ (100 nM > A2) | CC(C)(C)c1ccc(C2(C)C(=O)N(c3cccc(C(=O)O)c3)c3ccc(Cl)cc32)cc1 (stereo in doubt) [3-[(3R)-3-(4-tert-butylphenyl)-5-chloro-3-methyl-2-oxo-indolin-1-yl]benzoic acid]
+++ (100 nM > A2) | CC1(C)CCc2cc(C3(C)C(=O)N(c4cccc(C(=O)O)c4)c4ccc(Cl)cc43)ccc2O1 (stereo in doubt) [3-[(3R)-5-chloro-3-(2,2-dimethylchroman-6-yl)-3-methyl-2-oxo-indolin-1-yl]benzoic acid]
+++ (100 nM > A2) | CC1(C)CCc2cc(C3(C)C(=O)N(Cc4ccc(C(=O)O)cc4)c4ccc(Cl)cc43)ccc2O1 (stereo in doubt) [4-[[(3R)-5-chloro-3-(2,2-dimethylchroman-6-yl)-3-methyl-2-oxo-indolin-1-yl]methyl]benzoic acid]
+++ (100 nM > A2) | COc1ccc(N2C(=O)C(C)(c3ccc4c(c3)CCC(C)(C)O4)c3cc(Cl)ccc32)cc1C(=O)O (stereo in doubt) [5-[(3R)-5-chloro-3-(2,2-dimethylchroman-6-yl)-3-methyl-2-oxo-indolin-1-yl]-2-methoxy-benzoic acid]
